Our source for the IC50 and Ki values is ChEMBL document CHEMBL1149145, “Synthesis and selective inhibitory activity of 1-acetyl-3,5-diphenyl-4,5-dihydro-(1H)-pyrazole derivatives against monoamine oxidase” (J Med Chem, 2004).

By IC50 is commonly meant the point on the concentration scale where inhibition reaches its midpoint. Read a low IC50 as inhibition by little substance. Usually Ki stands for a dissociation constant, usually derived from enzyme kinetics or from competition with a known ligand.

Assay [1] deals with Amine oxidase [flavin-containing] B (Bos taurus) (UniProt P56560). The assay is described as follows: Inhibition of bovine monoamine oxidase B.
Assay [2] has as its target Amine oxidase [flavin-containing] A (Bos taurus) (UniProt P21398). The assay is described as follows: Inhibition of bovine monoamine oxidase A.
For assay [3], the target named is Monoamine oxidase (Bos taurus). Kind of assay: Inhibition of bovine monoamine oxidase.
For assay [4], the target named is Amine oxidase [flavin-containing] A (Bos taurus) (UniProt P21398). Kind of assay: Binding affinity was evaluated against bovine monoamino oxidase A.
For assay [5], the target named is Amine oxidase [flavin-containing] B (Bos taurus) (UniProt P56560). Kind of assay: Binding affinity was evaluated against bovine monoamino oxidase B.

Chain of Amine oxidase [flavin-containing] B (Bos taurus) (P56560 whole entry, looked up): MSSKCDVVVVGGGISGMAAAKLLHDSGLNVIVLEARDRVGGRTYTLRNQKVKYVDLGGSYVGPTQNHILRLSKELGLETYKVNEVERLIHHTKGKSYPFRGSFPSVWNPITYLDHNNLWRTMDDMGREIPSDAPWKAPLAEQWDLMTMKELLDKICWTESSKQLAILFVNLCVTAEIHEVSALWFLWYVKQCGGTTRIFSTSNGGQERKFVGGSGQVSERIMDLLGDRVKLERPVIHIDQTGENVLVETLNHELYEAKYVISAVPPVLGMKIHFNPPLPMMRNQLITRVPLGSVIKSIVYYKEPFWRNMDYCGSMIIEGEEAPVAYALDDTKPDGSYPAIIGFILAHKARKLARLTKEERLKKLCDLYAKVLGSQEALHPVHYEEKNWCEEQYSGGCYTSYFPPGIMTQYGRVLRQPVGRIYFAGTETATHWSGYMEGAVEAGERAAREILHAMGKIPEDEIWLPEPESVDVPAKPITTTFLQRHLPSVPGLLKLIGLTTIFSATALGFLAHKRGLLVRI

`COc1ccc(C2CC(c3ccc(O)cc3O)=NN2C(C)=O)cc1` (stereo not drawn): the 50% inhibitory concentration (IC50) in assay [1] amounted to 83 µM; in assay [2], 0.009 µM; in assay [3], 10 µM.
The matching figures for `CC(=O)N1N=C(c2ccc(O)cc2)CC1c1ccc(C)cc1` (stereo not drawn): 30 µM, 0.1 µM and 0.2 µM.
Consider `CC(=O)N1N=C(c2ccc(O)cc2)CC1c1cccc(Cl)c1` (stereo not drawn), for which the IC50 in assay [1] stood at 25 µM; in assay [2] it was 0.01 µM; in assay [3] it was 12 µM.
The matching figures for `CC(=O)N1N=C(c2ccc(O)cc2)CC1c1cccc(C)c1` (stereo not drawn): 19 µM, 0.008 µM and 9.5 µM.
Consider `CC(=O)N1N=C(c2ccc(O)cc2O)CC1c1ccc(Cl)cc1` (stereo not drawn), for which the values for the IC50 in assay [1], in assay [2] and in assay [3] were 120 µM, 0.01 µM and 20 µM, respectively.
The matching figures for `CC(=O)N1N=C(c2ccc(O)cc2O)CC1c1ccc(C)cc1` (stereo not drawn): 42 µM, 0.009 µM and 9.5 µM.
With `CC(=O)N1N=C(c2ccc(O)cc2)CC1c1ccccc1Cl` (stereo not drawn), the half-maximal inhibitory concentration (IC50) was found to be 89 µM in assay [1], 0.0086 µM in assay [2] and 50 µM in assay [3].
The matching figures for `COc1ccc(C2CC(c3ccc(O)cc3)=NN2C(C)=O)c(OC)c1` (stereo not drawn): 20 µM, 0.01 µM and 10 µM.
The matching figures for `COc1ccc(C2CC(c3ccc(O)cc3)=NN2C(C)=O)cc1` (stereo not drawn): 7.2 µM, 0.009 µM and 3.6 µM.
The matching figures for `CC(=O)N1N=C(c2ccc(O)cc2)CC1c1ccc(Cl)cc1` (stereo not drawn): 40 µM, 0.1 µM and 40 µM.
As for `COc1ccccc1C1CC(c2ccc(O)cc2O)=NN1C(C)=O` (single isomer, unassigned; (+)), the results for the Ki in assay [4] and in assay [5] were 0.007 µM and 270 µM, respectively.
Consider `COc1ccccc1C1CC(c2ccc(O)cc2)=NN1C(C)=O` (single isomer, unassigned; (-)), for which the values for the inhibitory constant (Ki) in assay [4] and in assay [5] were 0.002 µM and 330 µM, respectively.
The matching figures for `COc1ccccc1C1CC(c2ccc(O)cc2O)=NN1C(C)=O` (single isomer, unassigned; (-)): 0.004 µM and 320 µM.
For `COc1ccccc1C1CC(c2ccc(O)cc2)=NN1C(C)=O` (stereo in doubt; 6), the inhibitory constant (Ki) in assay [4] was found to be 0.009 µM; in assay [5], 760 µM. For the same compound, the IC50 in assay [1] turned out to be 100 µM; in assay [2], 0.0088 µM; in assay [3], 30 µM.
The matching figures for `COc1ccccc1C1CC(c2ccc(O)cc2O)=NN1C(C)=O` (stereo in doubt; 11): 0.008 µM, 600 µM, 130 µM, 0.008 µM and 40 µM.
Regarding `COc1ccccc1C1CC(c2ccc(O)cc2)=NN1C(C)=O` (stereo in doubt; (+)-6), the inhibitory constant (Ki) in assay [4] turned out to be 0.006 µM; in assay [5], 1000 µM.
